From US20040053323A1, “Method of screening inducible nitric oxide synthase activation inhibitor” (priority 2000, published 2004)

Columns and labels:
iNOS [1] = target: T1, iNOS (Mus musculus, UniProt P29477); settings: cited from earlier work
T1 sequence (P29477 1-1144): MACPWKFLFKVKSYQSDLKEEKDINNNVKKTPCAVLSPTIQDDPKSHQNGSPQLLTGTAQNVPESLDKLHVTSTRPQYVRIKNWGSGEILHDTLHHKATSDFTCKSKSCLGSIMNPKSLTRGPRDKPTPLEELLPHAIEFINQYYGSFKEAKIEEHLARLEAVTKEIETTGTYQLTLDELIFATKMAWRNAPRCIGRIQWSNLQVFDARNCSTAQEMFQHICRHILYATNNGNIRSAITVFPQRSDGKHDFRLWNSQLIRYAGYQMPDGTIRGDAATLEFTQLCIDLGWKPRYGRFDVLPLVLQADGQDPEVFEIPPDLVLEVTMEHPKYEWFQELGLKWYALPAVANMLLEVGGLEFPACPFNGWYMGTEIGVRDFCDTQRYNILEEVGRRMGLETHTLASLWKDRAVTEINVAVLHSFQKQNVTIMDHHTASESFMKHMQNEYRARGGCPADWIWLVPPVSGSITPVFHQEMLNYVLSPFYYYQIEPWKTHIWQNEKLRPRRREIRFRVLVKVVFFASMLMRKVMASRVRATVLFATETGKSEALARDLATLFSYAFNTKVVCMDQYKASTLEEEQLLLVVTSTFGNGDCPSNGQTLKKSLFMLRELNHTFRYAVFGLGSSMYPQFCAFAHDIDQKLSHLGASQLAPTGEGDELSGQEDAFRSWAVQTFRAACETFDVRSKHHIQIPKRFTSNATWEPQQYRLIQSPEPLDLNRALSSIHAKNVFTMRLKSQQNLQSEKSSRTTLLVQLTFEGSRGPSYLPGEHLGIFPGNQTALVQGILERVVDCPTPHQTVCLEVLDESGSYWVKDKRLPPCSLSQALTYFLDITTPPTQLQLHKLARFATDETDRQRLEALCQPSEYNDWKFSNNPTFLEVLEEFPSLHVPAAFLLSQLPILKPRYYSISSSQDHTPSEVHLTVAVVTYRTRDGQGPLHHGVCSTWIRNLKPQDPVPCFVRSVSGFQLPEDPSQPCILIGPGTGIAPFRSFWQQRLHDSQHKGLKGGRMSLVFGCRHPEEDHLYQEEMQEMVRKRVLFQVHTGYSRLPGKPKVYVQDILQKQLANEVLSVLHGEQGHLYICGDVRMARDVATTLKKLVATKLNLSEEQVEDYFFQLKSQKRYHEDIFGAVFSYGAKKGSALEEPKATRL

iNOS [2] = target: T1, iNOS; assay: iNOS dimer/monomer detection by gel filtration and anti-iNOS dot blotting of LPS/IFN-stimulated RAW264.7 cell extract; format: cell-based; set-up: endogenous in cells; host or cells: RAW264.7 mouse macrophage cells stimulated with LPS and IFN-γ; settings: RAW264.7 cells, LPS/IFN stimulation, compound A added
Method: (§1) Mouse macrophage derived RAW264.7 cells (Stuehr D. J. Proc. Natl. Acad. Sci. USA. 1991, 88, 7773; Cancer Res. 1987, 47, 5590) were cultured in Dulbecco's Modified Eagle Medium containing 10% FCS (fetal calf serum) , until there were 2 to 4×10^7 cells in each F75 culture flask (Falcon). Then, lipopolysaccharide (LPS) and interferon-γ (IFN) were added to a final concentration of 4 μg/ml and 16 units/ml, respectively, and cultured overnight in a CO2 incubator (37° C.). 0.1% Trypsin (5 mL) was added to the flask in which the cells were cultured, the cells were detached by an incubation at 37° C. for 5 minutes, and then collected by centrifugation. […]
(§2) Then, 200 μL of that extract was applied to Superdex 200 HR10/30 (flow rate 0.5 mL/min: Amersham Pharmacia Biotech, Sweden) pre-equilibrated with 25 mM Tris-HCl (pH 8.0) containing 150 mM NaCl to perform gel filtration chromatography. Each of the fractions collected every minute were mixed with 7 mL of Aquasol-2 (Packard, USA), and was then measured with a liquid scintillation counter (FIG. 1). ^14C-A used in this experiment was synthesized as follows.
Gel filtration fractions containing compound A binding activity, which were obtained by a method similar to that of Example 2 were analyzed by dot blotting. […]

[3] = target: T2, ^14C-A-bound protein in RAW cells (Mus musculus, UniProt P29477); assay: Dose dependency of ^14C-A binding activity in LPS/IFN-stimulated RAW264.7 cell extract; format: cell-based; settings: RAW264.7 cells, LPS/IFN stimulation
T2 construct: endogenous in cells; host or cells: RAW264.7 mouse macrophage cells stimulated with LPS and IFN-γ
T2 sequence (P29477 1-1144): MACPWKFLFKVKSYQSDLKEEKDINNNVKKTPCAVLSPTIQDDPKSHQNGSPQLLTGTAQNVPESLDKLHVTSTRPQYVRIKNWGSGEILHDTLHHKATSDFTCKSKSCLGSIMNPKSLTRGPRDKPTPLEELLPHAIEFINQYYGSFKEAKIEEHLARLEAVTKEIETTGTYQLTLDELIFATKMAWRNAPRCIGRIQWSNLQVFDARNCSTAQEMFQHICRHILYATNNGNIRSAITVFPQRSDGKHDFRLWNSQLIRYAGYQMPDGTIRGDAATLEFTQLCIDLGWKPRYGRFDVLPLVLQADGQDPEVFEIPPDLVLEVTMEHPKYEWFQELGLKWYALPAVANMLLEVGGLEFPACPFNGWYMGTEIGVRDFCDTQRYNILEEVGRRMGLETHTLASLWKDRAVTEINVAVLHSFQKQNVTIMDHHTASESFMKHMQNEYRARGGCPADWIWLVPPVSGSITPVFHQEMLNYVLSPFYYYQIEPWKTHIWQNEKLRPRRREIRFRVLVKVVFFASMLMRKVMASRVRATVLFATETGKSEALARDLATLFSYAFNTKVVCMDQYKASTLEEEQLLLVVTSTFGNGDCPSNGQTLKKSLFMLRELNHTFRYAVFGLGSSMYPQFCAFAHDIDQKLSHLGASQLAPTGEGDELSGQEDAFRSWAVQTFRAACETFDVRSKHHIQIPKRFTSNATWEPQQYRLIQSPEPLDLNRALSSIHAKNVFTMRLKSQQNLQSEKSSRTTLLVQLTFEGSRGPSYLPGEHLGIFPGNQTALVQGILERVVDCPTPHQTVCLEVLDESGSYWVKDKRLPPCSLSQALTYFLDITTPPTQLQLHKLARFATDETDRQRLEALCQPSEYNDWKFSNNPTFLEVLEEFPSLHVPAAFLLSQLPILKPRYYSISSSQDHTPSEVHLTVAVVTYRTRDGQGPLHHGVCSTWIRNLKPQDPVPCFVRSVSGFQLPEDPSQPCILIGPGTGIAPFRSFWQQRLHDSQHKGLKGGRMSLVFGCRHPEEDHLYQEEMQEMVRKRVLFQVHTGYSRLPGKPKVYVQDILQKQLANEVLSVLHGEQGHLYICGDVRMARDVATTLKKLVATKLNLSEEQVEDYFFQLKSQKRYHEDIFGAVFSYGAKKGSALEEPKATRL
Method: as §1, with “centrifugation. To the collected cells (2,000 rpm, 10 minutes), 600 μL of lysis buffer was added, and freeze thawing was repeated three times to disrupt the cells. The supernatant obtained by centrifugation (15,000 rpm, 15 minutes) was collected and this was the cell extract.” for “centrifugation.”
as §2

Δ122-iNOSox = target: T3, Δ122-iNOSox (Homo sapiens, UniProt P35228); assay: Binding assay of ^3H-compound A with Δ122-iNOSox (gel filtration mini column, scintillation counting); settings: Δ122-iNOSox protein
T3 construct: genes of the oxygenase domain region (amino acids 1 to 526) by PCR; His tag; made in house; host or cells: E. coli, protease-deficient DE3 strain; vector pTrcHis2 (Invitrogen)
T3 sequence (P35228 123-526 limits assumed, stated change not applied): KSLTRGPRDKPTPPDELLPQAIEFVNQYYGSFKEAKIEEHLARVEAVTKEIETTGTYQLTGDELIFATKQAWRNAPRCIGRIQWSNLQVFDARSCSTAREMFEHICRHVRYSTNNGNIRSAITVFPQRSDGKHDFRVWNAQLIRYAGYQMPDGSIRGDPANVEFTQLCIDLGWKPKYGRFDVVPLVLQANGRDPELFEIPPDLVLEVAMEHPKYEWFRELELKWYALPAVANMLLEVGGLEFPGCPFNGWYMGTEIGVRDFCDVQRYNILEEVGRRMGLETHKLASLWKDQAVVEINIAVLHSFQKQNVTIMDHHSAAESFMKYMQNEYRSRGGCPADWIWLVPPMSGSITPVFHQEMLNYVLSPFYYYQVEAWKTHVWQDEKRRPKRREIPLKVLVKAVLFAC
Method: A binding assay system for ^3H-compound A (25Ci/mmol) was constructed using Δ122-iNOSox obtained in Example 9. In principle, it is an assay system in which the binding strength of a compound towards iNOS can be analyzed by measuring the amount of ^3H-compound A replaced by various test drugs added to bound Δ122-iNOSox protein and ^3H-compound A (10 nM) . That is, to 100 μL of a Δ122-iNOSox solution that has been diluted to a final concentration of 1 μg/mL with 25 mM Tris-HCl (pH 7.5) containing 150 mM NaCl and 1% CHAPS, 1 μL of 1 μM ^3H-compound A was added and was incubated for 3 hours at 4° C., then the entire amount was applied to a gel filtration mini column for desalting (NICK column; Pharmacia) that was pre-equilibrated with 25 mM Tris-HCl (pH 7.5) containing 150 mM NaCl. Next, 400 μL of the same buffer was added, the eluted solution was mixed with 7 mL of aquasol, and this was measured with a liquid scintillation counter.

[4] = target: the molecule itself; assay: gel filtration (Superdex 200) of RAW264.7 cell extract with dot blot detection; homodimer peak

## Clc1ccc(COC(Cn2ccnc2)c2ccc(Cl)cc2Cl)c(Cl)c1 (stereo not shown) [miconazole]
iNOS [1]
  effect on iNOS enzyme activity and dimerization: interfered not only with enzyme activity of iNOS but also with its dimerization

## Clc1ccccc1C(c1ccccc1)(c1ccccc1)n1ccnc1 [clotrimazole]
iNOS [1]
  effect on iNOS enzyme activity and dimerization: interfered not only with enzyme activity of iNOS but also with its dimerization

## CN(Cc1cccnc1)C(=O)[C@H](Cc1ccccc1)NC(=O)[C@H](Cc1ccccn1)NC(=O)c1cc2ccccc2o1 [compound A]
iNOS [2]
  iNOS dimerization (dimer peak in dot blotting of gel filtration fractions): the peak corresponding to the dimer had clearly disappeared
[3]
  radioactivity of cell extract versus added ^14C-A concentration (saturation): saturation of radioactivity was confirmed between 10^−6 M and 10^−5 M
Δ122-iNOSox; Hill plot analysis
  Hill coefficient: 0.971
Δ122-iNOSox; ^3H-compound A, saturation curve and Scatchard plot
  Kd: 13.5 nM

B1: iNOS derived from mice (inducible nitrogen oxide synthase from LPS/IFN-stimulated RAW264.7 cells) (enzyme, mouse, UniProt P29477 1-1144, looked up)
chain: MACPWKFLFKVKSYQSDLKEEKDINNNVKKTPCAVLSPTIQDDPKSHQNGSPQLLTGTAQNVPESLDKLHVTSTRPQYVRIKNWGSGEILHDTLHHKATSDFTCKSKSCLGSIMNPKSLTRGPRDKPTPLEELLPHAIEFINQYYGSFKEAKIEEHLARLEAVTKEIETTGTYQLTLDELIFATKMAWRNAPRCIGRIQWSNLQVFDARNCSTAQEMFQHICRHILYATNNGNIRSAITVFPQRSDGKHDFRLWNSQLIRYAGYQMPDGTIRGDAATLEFTQLCIDLGWKPRYGRFDVLPLVLQADGQDPEVFEIPPDLVLEVTMEHPKYEWFQELGLKWYALPAVANMLLEVGGLEFPACPFNGWYMGTEIGVRDFCDTQRYNILEEVGRRMGLETHTLASLWKDRAVTEINVAVLHSFQKQNVTIMDHHTASESFMKHMQNEYRARGGCPADWIWLVPPVSGSITPVFHQEMLNYVLSPFYYYQIEPWKTHIWQNEKLRPRRREIRFRVLVKVVFFASMLMRKVMASRVRATVLFATETGKSEALARDLATLFSYAFNTKVVCMDQYKASTLEEEQLLLVVTSTFGNGDCPSNGQTLKKSLFMLRELNHTFRYAVFGLGSSMYPQFCAFAHDIDQKLSHLGASQLAPTGEGDELSGQEDAFRSWAVQTFRAACETFDVRSKHHIQIPKRFTSNATWEPQQYRLIQSPEPLDLNRALSSIHAKNVFTMRLKSQQNLQSEKSSRTTLLVQLTFEGSRGPSYLPGEHLGIFPGNQTALVQGILERVVDCPTPHQTVCLEVLDESGSYWVKDKRLPPCSLSQALTYFLDITTPPTQLQLHKLARFATDETDRQRLEALCQPSEYNDWKFSNNPTFLEVLEEFPSLHVPAAFLLSQLPILKPRYYSISSSQDHTPSEVHLTVAVVTYRTRDGQGPLHHGVCSTWIRNLKPQDPVPCFVRSVSGFQLPEDPSQPCILIGPGTGIAPFRSFWQQRLHDSQHKGLKGGRMSLVFGCRHPEEDHLYQEEMQEMVRKRVLFQVHTGYSRLPGKPKVYVQDILQKQLANEVLSVLHGEQGHLYICGDVRMARDVATTLKKLVATKLNLSEEQVEDYFFQLKSQKRYHEDIFGAVFSYGAKKGSALEEPKATRL
notes: Endogenous protein in cell extract and gel filtration fractions; It ran as monomer and dimer peaks without compound A and as monomer only with compound A; also called iNOS protein
[4]
  binding result: binds
